Data taken from US5308864A, “6-(hydronaphtyl-1-ethyl)-4-hydroxy-3,4,5,6-tetrahydro-2H-pyran-2-ones and the corresponding hydroxy acids” (British Bio-Technology Limited, priority 1989, dated 1994).

How the values were obtained:
HMG-CoA reductase = target: T1, HMG-CoA reductase (Rattus norvegicus, UniProt P51639); test: In vitro determination of inhibitory potential of HMG-CoA reductase inhibitors (Test A, rat liver microsomal enzyme); type: biochemical; conditions: HMG-CoA reductase from rat liver microsomes; inhibitors converted to sodium salts
T1 construct: from tissue; host or cells: rat liver microsomes (cholestyramine-induced)
T1 sequence (P51639 1-887): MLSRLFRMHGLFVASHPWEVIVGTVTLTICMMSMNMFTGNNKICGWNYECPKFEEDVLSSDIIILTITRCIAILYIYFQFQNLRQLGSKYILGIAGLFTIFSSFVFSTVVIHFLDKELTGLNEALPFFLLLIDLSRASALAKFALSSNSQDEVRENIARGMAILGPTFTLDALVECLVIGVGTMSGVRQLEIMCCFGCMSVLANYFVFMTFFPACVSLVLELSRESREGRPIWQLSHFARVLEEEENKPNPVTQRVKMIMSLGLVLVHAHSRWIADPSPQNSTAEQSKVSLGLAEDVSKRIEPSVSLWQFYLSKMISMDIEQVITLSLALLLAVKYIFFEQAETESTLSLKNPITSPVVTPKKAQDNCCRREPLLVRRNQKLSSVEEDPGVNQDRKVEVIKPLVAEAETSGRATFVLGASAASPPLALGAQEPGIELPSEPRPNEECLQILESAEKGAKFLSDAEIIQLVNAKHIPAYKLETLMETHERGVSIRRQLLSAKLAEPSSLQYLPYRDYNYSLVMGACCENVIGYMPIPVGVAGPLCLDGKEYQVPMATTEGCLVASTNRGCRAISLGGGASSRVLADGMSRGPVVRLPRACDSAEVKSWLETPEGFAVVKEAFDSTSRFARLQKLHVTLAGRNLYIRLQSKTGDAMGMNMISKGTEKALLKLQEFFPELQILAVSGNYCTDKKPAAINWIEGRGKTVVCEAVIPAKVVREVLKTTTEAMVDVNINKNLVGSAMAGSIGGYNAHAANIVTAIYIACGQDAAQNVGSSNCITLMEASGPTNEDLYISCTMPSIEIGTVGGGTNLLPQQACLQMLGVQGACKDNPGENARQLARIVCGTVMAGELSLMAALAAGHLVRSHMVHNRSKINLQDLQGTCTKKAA
Procedure: HMG-CoA reductase was induced in rats by feeding a normal diet supplemented with 3% cholestyramine resin for one week prior to sacrifice. […] Briefly, the livers were immediately placed in ice-cold buffer I (see below) and homogenised in a Potter-Elvehjem type glass/TEFLON homogeniser (10 passes at 1000 rpm). […] The supernatant was centrifuged at 100,000×g for 75 minutes, the microsomal pellet resuspended in buffer II (see below) and centrifuged at 100,000×g for 75 minutes. The resultant pellet was stored at -70° C. until required for assay purposes.
Membrane bound enzyme isolated as above is used for determining the activity of inhibitors. The assay is performed in a total volume of 300 μl in 100 mM KPO4 pH 7.2 buffer, containing 3 mM MgCl2, 5 mM glucose-6-phosphate, 10 mM reduced glutathione, 1mM NADP, 1 unit glucose-6-phosphate dehydrogenase, and 1 mg/ml BSA, with resuspended enzyme. Putative inhibitors are converted to sodium salts, then dissolved in dimethylsulphoxide and 10 μl aliquots added to the incubation.
The assay is pre-incubated at 37° C. for 10 minutes and initiated by the addition of 0.1 μCi 3-hydroxy-3-methyl-[3-^14 C]glutaryl coenzyme A (52 Ci/Mole) followed by incubating the complete reaction at 37° C. for 10 minutes. At the end of this period the reaction is stopped by adding 300 μl of a 10 mM mevalonolactone solution in 0.1 M hydrochloric acid and the mevalonic acid product allowed to lactonise for a further period of 30 minutes. The product is then isolated by chromatography using Bio-Rex 5 resin and the enzyme activity quantified by liquid scintillation spectrophotometry.
Appropriate controls are included in the assay and IC50 values obtained by graphical means.

[1] = system: cholesterol biosynthesis in Human hepatoma (HEP G2) cells; test: Assay for the inhibition of cholesterol biosynthesis in cultured cells (Test B, HEP G2); type: cell-based; conditions: 2-14C-acetate incorporation, HEP G2, 3 hours at 37° C.
Procedure: ASSAY FOR THE INHIBITION OF CHOLESTEROL BIOSYNTHESIS IN CULTURED CELLS
Human hepatoma (HEP G2) or fibroblastic (HES-9) cells were grown in Dulbecco's modified Eagle's medium (DMEM) with 10% foetal calf serum, in 6 cm tissue culture dishes until approaching confluence (approximately 4 days). The medium was changed to DMEM with 1% foetal calf serum 24 hours prior to experimentation.
Test compounds that are salts were dissolved in aqueous, physiological buffer. Lactones and esters were dissolved in dimethylsulphoxide.
Test compound were added to the cell monolayers concurrently with 2-^14 C-acetate (5 μCi/ml of incubation volume); control samples receiving vehicle together with radioisotope. The incubation was continued for 3 hours at 37° C.
The IC50 for inhibition of sterol synthesis by test compounds was measured from plots of % inhibition (compared to controls) versus log concentration, using at least 5 concentrations of inhibitor.
This assay, therefore, measures the ability of test substances to inhibit intracellular synthesis of cholesterol.

[2] = HepG2, inhibition of sterol synthesis

Row | SMILES | IC50 (HMG-CoA reductase) [nM] | IC50 [1, 2] [nM] | IC50 ([1]; HepG2, after hydrolysis, inhibition of sterol synthesis) [nM]
1 | C/C=C\[C@@H]1C[C@H](OC(=O)[C@@H](C)CC)[C@@H]2[C@@H](CC[C@@H](O)C[C@@H](O)CC(=O)O)[C@@H](C)C=C[C@H]2C1 [Compound B, Sodium (1S,2S,4aR,6S,8S,8aS,3'R,5'R,2"S)-7'-(1,2,4a, 5,6,7,8,8a-octahydro-2-methyl-8[(2"-methyl-1"-oxobutyl)oxy]-6-[(Z)-prop-1-enyl]-1-naphthalenyl)-3',5'-dihydroxyheptanoate] | 15 | 60 | 
2 | C/C=C/[C@@H]1C[C@H](OC(=O)[C@@H](C)CC)[C@@H]2[C@@H](CC[C@@H]3C[C@@H](O)CC(=O)O3)[C@@H](C)C=C[C@H]2C1 [Compound G, (1S,2S,4aR,6S,8S,8aS,4'R,6'R,2"S)6'-{2-(1,2,4a,5,6,7,8,8a-octahydro-2-methyl-8[(2"-methyl-1"-oxobutyl)oxy]-6-[(E)-prop-1-enyl]-1-naphthalenyl)ethyl}-tetrahydro-4'-hydroxy-2H-pyran-2'-one] |  |  | 25
3 | C/C=C/[C@@H]1C[C@H](OC(=O)C(C)(C)CC)[C@@H]2[C@@H](CC[C@@H](O)C[C@@H](O)CC(=O)O)[C@@H](C)C=C[C@H]2C1 [Compound N, Sodium (1S,2S,4aR,6S,8S,8aS,3'R,5'R)-7'-(1,2,4a,5,6,7,8,8a-octahydro-2-methyl-8-[(2"-dimethyl-1"-oxobutyl)oxy]-6-[(E)-prop-1enyl]-1-naphthalenyl)-3',5'-dihydroxyheptanoate] | 3 | 7 | 
4 | CC[C@H](C)C(=O)O[C@H]1C[C@@H](C)C[C@@H]2C=C[C@H](C)[C@H](CC[C@@H]3C[C@@H](O)CC(=O)O3)[C@@H]12 [Dihydromevinolin, reference compound] | 30 | 40 | 
